The first experiment deals with 349418-098-R-PDC complex spheroid viability. Briefly: Anticancer human tumor 349418-098-R-PDC patient-derived lung adenocarcinoma cell line growth inhibition [RAS]. To be noted: second compound 0.0316 µM; first compound 3.16 µM; stronger effect = lower value. The method in brief: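 Agents were tested in combination matrices in half-log decrements from a top concentration at or near clinical Cmax (10 microM if undetermined). Targets were multi-cell spheroids of tumour lines plus HUVEC and MSC stromal cells.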
What is called viability, T/C is the ratio of treated to control. Turning to `CC1(O)CCCC1n1c(=O)c(C(F)F)cc2cnc(NC3CCN(S(C)(=O)=O)CC3)nc21` (stereo unspecified) + C#Cc1c(F)ccc2cc(O)cc(-c3ncc4c(N5CC6CCC(C5)N6)nc(OCC56CCCN5CC(F)C6)nc4c3F)c12, the viability, T/C is 23.2%.

For `CCC(CC)c1cc(NC2CCC(N)C2)n2nccc2n1` (stereo unspecified) + C#Cc1c(F)ccc2cc(O)cc(-c3ncc4c(N5CC6CCC(C5)N6)nc(OCC56CCCN5CC(F)C6)nc4c3F)c12, the viability, T/C was 3.06%.

Regarding `C[C@@H](NC(=O)c1ncnc(N)c1Cl)c1ncc(C(=O)Nc2cc(C(F)(F)F)c(Cl)cn2)s1` + C#Cc1c(F)ccc2cc(O)cc(-c3ncc4c(N5CC6CCC(C5)N6)nc(OCC56CCCN5CC(F)C6)nc4c3F)c12, the viability, T/C was 47.2%.

The experiment is the same for the next values; noted with them: second compound 0.0316 µM; first compound 10 µM; stronger effect = lower value.
As to `CC1(O)CCCC1n1c(=O)c(C(F)F)cc2cnc(NC3CCN(S(C)(=O)=O)CC3)nc21` (stereo unspecified) + C#Cc1c(F)ccc2cc(O)cc(-c3ncc4c(N5CC6CCC(C5)N6)nc(OCC56CCCN5CC(F)C6)nc4c3F)c12, the viability, T/C is 3.27%.

For `CCC(CC)c1cc(NC2CCC(N)C2)n2nccc2n1` (stereo unspecified) + C#Cc1c(F)ccc2cc(O)cc(-c3ncc4c(N5CC6CCC(C5)N6)nc(OCC56CCCN5CC(F)C6)nc4c3F)c12, the viability, T/C was 2.85%.

`C[C@@H](NC(=O)c1ncnc(N)c1Cl)c1ncc(C(=O)Nc2cc(C(F)(F)F)c(Cl)cn2)s1` + C#Cc1c(F)ccc2cc(O)cc(-c3ncc4c(N5CC6CCC(C5)N6)nc(OCC56CCCN5CC(F)C6)nc4c3F)c12: the viability, T/C is 35.4%.

Staying with this experiment, now noted: second compound 0.1 µM; first compound 0.00316 µM; stronger effect = lower value.
`CCN1CCN(Cc2ccc(Nc3ncc(F)c(-c4cc(F)c5nc(C)n(C(C)C)c5c4)n3)nc2)CC1` + C#Cc1c(F)ccc2cc(O)cc(-c3ncc4c(N5CC6CCC(C5)N6)nc(OCC56CCCN5CC(F)C6)nc4c3F)c12: the viability, T/C is 76.2%.

Staying with this experiment, now noted: second compound 0.1 µM; first compound 0.01 µM; stronger effect = lower value.
For the compound `CCN1CCN(Cc2ccc(Nc3ncc(F)c(-c4cc(F)c5nc(C)n(C(C)C)c5c4)n3)nc2)CC1` + C#Cc1c(F)ccc2cc(O)cc(-c3ncc4c(N5CC6CCC(C5)N6)nc(OCC56CCCN5CC(F)C6)nc4c3F)c12, the viability, T/C is 77.7%.

The same experiment, now with this note: second compound 0.1 µM; first compound 0.0316 µM; stronger effect = lower value.
Regarding `CC1(O)CCCC1n1c(=O)c(C(F)F)cc2cnc(NC3CCN(S(C)(=O)=O)CC3)nc21` (stereo unspecified) + C#Cc1c(F)ccc2cc(O)cc(-c3ncc4c(N5CC6CCC(C5)N6)nc(OCC56CCCN5CC(F)C6)nc4c3F)c12, the viability, T/C is 83.5%.

With `CCC(CC)c1cc(NC2CCC(N)C2)n2nccc2n1` (stereo unspecified) + C#Cc1c(F)ccc2cc(O)cc(-c3ncc4c(N5CC6CCC(C5)N6)nc(OCC56CCCN5CC(F)C6)nc4c3F)c12, the viability, T/C was 84.2%.

`CCN1CCN(Cc2ccc(Nc3ncc(F)c(-c4cc(F)c5nc(C)n(C(C)C)c5c4)n3)nc2)CC1` + C#Cc1c(F)ccc2cc(O)cc(-c3ncc4c(N5CC6CCC(C5)N6)nc(OCC56CCCN5CC(F)C6)nc4c3F)c12: the viability, T/C was 47.6%.

Regarding `C[C@@H](NC(=O)c1ncnc(N)c1Cl)c1ncc(C(=O)Nc2cc(C(F)(F)F)c(Cl)cn2)s1` + C#Cc1c(F)ccc2cc(O)cc(-c3ncc4c(N5CC6CCC(C5)N6)nc(OCC56CCCN5CC(F)C6)nc4c3F)c12, the viability, T/C is 101%.

Still in this experiment, the particulars now being: second compound 0.1 µM; first compound 0.1 µM; stronger effect = lower value.
Turning to `CC1(O)CCCC1n1c(=O)c(C(F)F)cc2cnc(NC3CCN(S(C)(=O)=O)CC3)nc21` (stereo unspecified) + C#Cc1c(F)ccc2cc(O)cc(-c3ncc4c(N5CC6CCC(C5)N6)nc(OCC56CCCN5CC(F)C6)nc4c3F)c12, the viability, T/C was 41.3%.

For `CCC(CC)c1cc(NC2CCC(N)C2)n2nccc2n1` (stereo unspecified) + C#Cc1c(F)ccc2cc(O)cc(-c3ncc4c(N5CC6CCC(C5)N6)nc(OCC56CCCN5CC(F)C6)nc4c3F)c12, the viability, T/C is 107%.

For the compound `CCN1CCN(Cc2ccc(Nc3ncc(F)c(-c4cc(F)c5nc(C)n(C(C)C)c5c4)n3)nc2)CC1` + C#Cc1c(F)ccc2cc(O)cc(-c3ncc4c(N5CC6CCC(C5)N6)nc(OCC56CCCN5CC(F)C6)nc4c3F)c12, the viability, T/C is 25.7%.

For `C[C@@H](NC(=O)c1ncnc(N)c1Cl)c1ncc(C(=O)Nc2cc(C(F)(F)F)c(Cl)cn2)s1` + C#Cc1c(F)ccc2cc(O)cc(-c3ncc4c(N5CC6CCC(C5)N6)nc(OCC56CCCN5CC(F)C6)nc4c3F)c12, the viability, T/C was 118%.

Staying with this experiment, now noted: second compound 0.1 µM; first compound 0.316 µM; stronger effect = lower value.
With `CC1(O)CCCC1n1c(=O)c(C(F)F)cc2cnc(NC3CCN(S(C)(=O)=O)CC3)nc21` (stereo unspecified) + C#Cc1c(F)ccc2cc(O)cc(-c3ncc4c(N5CC6CCC(C5)N6)nc(OCC56CCCN5CC(F)C6)nc4c3F)c12, the viability, T/C is 23.1%.

Regarding `CCC(CC)c1cc(NC2CCC(N)C2)n2nccc2n1` (stereo unspecified) + C#Cc1c(F)ccc2cc(O)cc(-c3ncc4c(N5CC6CCC(C5)N6)nc(OCC56CCCN5CC(F)C6)nc4c3F)c12, the viability, T/C was 84.5%.

For the compound `CCN1CCN(Cc2ccc(Nc3ncc(F)c(-c4cc(F)c5nc(C)n(C(C)C)c5c4)n3)nc2)CC1` + C#Cc1c(F)ccc2cc(O)cc(-c3ncc4c(N5CC6CCC(C5)N6)nc(OCC56CCCN5CC(F)C6)nc4c3F)c12, the viability, T/C is 22%.

On to `C[C@@H](NC(=O)c1ncnc(N)c1Cl)c1ncc(C(=O)Nc2cc(C(F)(F)F)c(Cl)cn2)s1` + C#Cc1c(F)ccc2cc(O)cc(-c3ncc4c(N5CC6CCC(C5)N6)nc(OCC56CCCN5CC(F)C6)nc4c3F)c12, for which the viability, T/C is 95.9%.

The same experiment, now with this note: second compound 0.1 µM; first compound 1 µM; stronger effect = lower value.
Turning to `CC1(O)CCCC1n1c(=O)c(C(F)F)cc2cnc(NC3CCN(S(C)(=O)=O)CC3)nc21` (stereo unspecified) + C#Cc1c(F)ccc2cc(O)cc(-c3ncc4c(N5CC6CCC(C5)N6)nc(OCC56CCCN5CC(F)C6)nc4c3F)c12, the viability, T/C is 16.2%.

The values are drawn from PubChem BioAssay AID2060904 (Molecular Pharmacology Branch, DTP, NCI, 2025).
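Note: spheroids exposed to compound for seven days before viability readout.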
